Experimental data as given in ChEMBL document CHEMBL1147234, “Bioassay-guided isolation of epiquinamide, a novel quinolizidine alkaloid and nicotinic agonist from an Ecuadoran poison frog, Epipedobates tricolor” (J Nat Prod, 2003).

How the values were obtained:
Assay type in all cases: functional
[1] = target: Acetylcholine receptor; alpha1/beta1/delta/gamma (Homo sapiens) (UniProt P02708+P07510+P11230+Q07001); experiment: Agonist activity at human nicotinic alpha-1-beta-1-gamma-delta receptor expressed in human TE-671 cells at 50 uM by cell based membrane potential assay relative to (+/-)-epibatidine
[2] = target: Neuronal acetylcholine receptor; alpha3/beta2 (Homo sapiens) (UniProt P17787+P32297); experiment: Agonist activity at human nicotinic alpha3beta2 receptor expressed in human SH-SY5Y cells at 50 uM by cell based membrane potential assay relative to (+/-)-epibatidine
[3] = target: Neuronal acetylcholine receptor; alpha3/beta4 (Homo sapiens) (UniProt P30926+P32297); experiment: Agonist activity at human nicotinic alpha3beta4 receptor expressed in human IMR32 cells at 50 uM by cell based membrane potential assay relative to (+/-)-epibatidine; settings: IMR-32
[4] = target: Neuronal acetylcholine receptor; alpha3/beta4 (Rattus norvegicus) (UniProt P04757+P12392); experiment: Agonist activity at rat nicotinic alpha3beta4 receptor expressed in human KXalpha-3-beta-4R2 cells at 50 uM by cell based membrane potential assay relative to (+/-)-epibatidine
[5] = target: Neuronal acetylcholine receptor; alpha4/beta2 (Homo sapiens) (UniProt P17787+P43681); experiment: Agonist activity at human nicotinic alpha4beta2 receptor expressed in human K177 cells at 50 uM by cell based membrane potential assay relative to (+/-)-epibatidine

## CC(=O)N[C@@H]1CCCN2CCCC[C@H]12 (relative stereo)
[1]
  Activity: 8%
[2]
  Activity: 51%
[3]
  Activity: 15%
[4]
  Activity: 23%
[5]
  Activity: 58%
